Measurements: patent publication US20020128268A1, “Use of 2-hydrazino-1,3-thiazoles as antioxidants” (priority 2000, published 2002)

How the values were obtained:
[1] = Rancimat accelerated autooxidation of lipids by air, squalene; details: antioxidative index = IP(with test solution)/IP(control sample), squalene purified on alumina type N and stabilized with 1 ppm α-tocopherol
Procedure: (§1) The activity of the exemplary compounds as antioxidants was compared with that of conventional antioxidants. The accelerated autooxidation of lipids by air with or without antioxidant, as measured using the Rancimat appliance (Rancimat is a registered trademark belonging to Metrohm AG, Herisau, Switzerland) was used as the test system. The exemplary compounds, Vitamin C, α-tocopherol and dibutyihydroxytoluene were dissolved in methanol or acetone, and 100 μl of the respective test solution were added to a previously prepared oil sample weighing 3 g. Solvent only was added to a control sample. A constant, dry stream of air (20 I/h) was blown through the heated oil sample containing the test solution, and the volatile oxidation products (principally short-chain fatty acids such as formic and acetic acid) were collected in a recipient vessel containing water. The conductivity of this aqueous solution was measured and documented continuously. In this connection, the oxidation of (unsaturated) fats proceeds only very slowly for a while and then suddenly increases rapidly. The time which elapses until the increase is termed the induction period (IP). The antioxidative index (AOI) was obtained using the following equation: AOI=IP(with test solution)/IP(control sample). The results for the experiments in soyabean oil at 100° C. and, at 80° C., in squalene, which was purified on alumina type N and stabilized with 1 ppm α-tocopherol, are shown in Table 6: […]

[2] = Rancimat accelerated autooxidation of lipids by air, soyabean oil; details: antioxidative index = IP(with test solution)/IP(control sample)
Procedure: as §1

[3] = DPPH (1,1-diphenyl-2-picryl-hydrazyl) test for eliminating free radicals; type: biochemical; details: effective relative concentration c(test compound)/c(DPPH) at which the DPPH free radical was 50% eliminated; methanol, absorption at 515 nm
Procedure: The activity of the exemplary compounds as free radical-capturing agents was compared with that of conventional free radical-capturing agents. In this connection, use was made of the DPPH (1,1-diphenyl-2-picryl-hydrazyl) test for eliminating free radicals.
DPPH was dissolved in methanol to give a concentration of 100 μmol/l. A series of dilutions of the exemplary compounds, Vitamin C, α-tocopherol and dibutylhydroxytoluene were prepared in methanol. Methanol served as the control. 2500 μl of the DPPH solution were mixed with 500 μl of each test solution and the decrease in the absorption at 515 nm was read until the decrease was less than 2% per hour. The activity of the test substances as free radical-capturing agents was calculated using the following equation:
Activity as free radical-capturing agent (%)=100—(absorption of the test compounds)/(absorption of the control)×100.
For each test compound, the effective relative concentration EC50 (based on the concentration of DPPH which was initially present, EC=c (test compound)/c(DPPH)) of a test compound, i.e. at which the DPPH free radical was 50% eliminated, was calculated from the activity as a free radical-capturing agent (%) in a series of dilutions of test compounds.

| Structure (SMILES) | EC50/ (mol/mol) [3] [mol/mol] | AOl in squalene at 80° C. containing 0.005% test substance [1] | AOl in Soyabean oil at 100° C. containing 0.05% test substance [2] |
| --- | --- | --- | --- |
| O=C1O[C@H]([C@@H](O)CO)C(O)=C1O [Vitamin C, reference compound] | 0.27 | 0.7 | 1.2 |
| NNc1nnc(-c2ccc(F)cc2)s1 [2-Hydrazino-5-(4-fluorophenyl)-1,3,4-thiadiazole] | 0.14 | 38 | 15 |
| COc1ccc2nc(NN)sc2c1 [6-Methoxy-2-hydrazino-1,3-benzothiazole] |  | 23 | 24 |
| NNc1nc(-c2ccccc2)cs1 [2-Hydrazino-4-phenyl-1,3-thiazole] | 0.13 | 13 | 8.5 |
| Cc1c(C)c2c(c(C)c1O)CC[C@@](C)(CCC[C@H](C)CCC[C@H](C)CCCC(C)C)O2 [α-Tocopherol, reference compound] | 0.25 | 39 | 5.1 |
| Cc1cc(C(C)(C)C)c(O)c(C(C)(C)C)c1 [Dibutylhydroxytoluene, reference compound] | 0.24 | 38 | 4.8 |

The next lines start with results.

| EC50/ (mol/mol) [3] [mol/mol] | Structure (SMILES) | AOl in squalene at 80° C. containing 0.005% test substance [1] | AOl in Soyabean oil at 100° C. containing 0.05% test substance [2] |
| --- | --- | --- | --- |
| 0.15 | CC(C)(C)c1ccc2nc(NN)sc2c1 [6-tert.-Butyl-2-hydrazino-1,3-benzothiazole] | 14 | 6 |
| 0.17 | NNc1nc2cc(S(=O)(=O)O)ccc2s1 [2-Hydrazino-1,3-benzothiazole-5-sulfonic acid] |  |  |
| 0.15 | NNc1nc2ccccc2s1 [2-Hydrazino-1,3-benzothiazole] | 97 | 17 |
| 0.10 | NNc1nc2cccnc2s1 [2-Hydrazino-thiazolo-[5,4-b]pyridine] | 60 |  |
| 0.12 | COc1cc2nc(NN)sc2cc1OC [5,6-Dimethoxy-2-hydrazino-1,3-benzothiazole] | 24 | 4.1 |
| 0.28 | Cc1ccc2nc(NN)sc2c1 [6-Methyl-2-hydrazino-1,3-benzothiazole] | 67 | 2.4 |
